Here are results for ten compounds from US9493468B2, “Antifungal 5,6-dihydro-4H-pyrrolo[1,2-a][1,4]benzo-diazepines and 6H-pyrrolo[1,2-a][1,4]benzodiazepines substituted with heterocyclic derivatives” (Janssen Pharmaceutica NV, priority 2011, dated 2016).

What all share (format): cell-based
The test system of one test is Microsporum canis. The test is described as follows: Antifungal activity in vitro, resazurin growth inhibition: Microsporum canis (B68128). The essentials:
(§1)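 Broth microdilution: RPMI-1640/L-Gln/2% glucose, MOPS pH 7.0±0.1; 10^3 cfu/well; top concentration 64 μM, 2- or 4-fold steps. Dermatophytes at 27° C., one week or more. Resazurin 0.005% (w/v) added, fluorescence 550/590 nm.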
For orientation: The colour change of resazurin is a common sign of viable cells or microbes.

For test [1], the system named is Trichophyton mentagrophytes. The test is described as follows: Antifungal activity in vitro, resazurin growth inhibition: Trichophyton mentagrophytes (B70554). In outline: as §1
In a further test the test system is Trichophyton rubrum. The test is described as follows: Antifungal activity in vitro, resazurin growth inhibition: Trichophyton rubrum (B68183). The essentials:
as §1

Another test deals with Scedosporium apiospermum. The test is described as follows: Antifungal activity in vitro, resazurin growth inhibition: Scedosporium apiospermum (IHEM3817). The essentials:
(§2)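 Compound dilutions, with 64 μM as the highest in-test level, are spotted onto plates, then an inoculum of 10^3 cfu in RPMI-1640 plus 2% glucose (MOPS, pH 7.0±0.1) is added. Plates are incubated at species-dependent time and temperature, up to a week or more at 27° C. for dermatophytes.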

Another test concerns Scedosporium prolificans. The test is described as follows: Antifungal activity in vitro, resazurin growth inhibition: Scedosporium prolificans (IHEM21157). In outline:
as §2

The test system of another test is Sporothrix schenkii. The test is described as follows: Antifungal activity in vitro, resazurin growth inhibition: Sporothrix schenkii (B62482). In outline:
as §2

Another test has as its system Aspergillus fumigatus. The test is described as follows: Antifungal activity in vitro, resazurin growth inhibition: Aspergillus fumigatus (B42928). The essentials:
as §2

Another test deals with Candida parapsilosis. The test is described as follows: Antifungal activity in vitro, resazurin growth inhibition: Candida parapsilosis (B66126). The essentials: as §2
The next test has as its system Cryptococcus neoformans. The test is described as follows: Antifungal activity in vitro, resazurin growth inhibition: Cryptococcus neoformans (B66663). In outline: as §2
The next test deals with Rhizopus oryzae. The test is described as follows: Antifungal activity in vitro, resazurin growth inhibition: Rhizopus oryzae (IHEM5223). The essentials:
as §2

The next test concerns Rhizomucor miehei. The test is described as follows: Antifungal activity in vitro, resazurin growth inhibition: Rhizomucor miehei (IHEM13391). The essentials: as §2

SMILES strings stand for the structures.

For `CC(C)n1ccc(C2=NCc3c(Cl)cccc3-n3cccc32)cc1=O` [Compound 70], in the test with Microsporum canis, the “Inf. B: Microsporum canis B68128, pIC50” value stood at 6.36. Moreover, in test [1], the “Inf. G: Trichophyton mentagrophytes B70554, pIC50” value (shortened to “Inf. G”) stood at 6.40. Moreover, the “Inf. C: Trichophyton rubrum B68183, pIC50” value (from here on “Inf. C”) in the test on Trichophyton rubrum worked out at 6.99. Further, the “Inf. H: Scedosporium apiospermum IHEM3817, pIC50” value (“Inf. H” for short) in the test on Scedosporium apiospermum is given as 5.68. Further, the “Inf. I: Scedosporium prolificans IHEM21157, pIC50” value (from here on “Inf. I”) in the test with Scedosporium prolificans was 6.38. The “Inf. A: Sporothrix schenkii B62482, pIC50” value in the test with Sporothrix schenkii was found to be 5.17. For the same compound, the “Inf. E: Aspergillus fumigatus B42928, pIC50” value (“Inf. E” for short) in the test on Aspergillus fumigatus stood at 6.00. Also, in the test on Candida parapsilosis, the “Inf. D: Candida parapsilosis B66126, pIC50” value (shortened to “Inf. D”) came to 5.12. Moreover, in the test with Cryptococcus neoformans, the “Inf. F: Cryptococcus neoformans B66663, pIC50” value (“Inf. F” for short) was found to be 5.28. Besides, the “Inf. J: Rhizopus oryzae IHEM5223, pIC50” value in the test with Rhizopus oryzae worked out at 5.50. Also, the “Inf. K: Rhizomucor miehei IHEM13391, pIC50” value (“Inf. K” for short) in the test with Rhizomucor miehei is 4.52.
As to `Cn1nnc2ccc(C3=NCc4c(Cl)cc(Cl)cc4-n4cccc43)cc21` [Compound 111], the “Inf. B: Microsporum canis B68128, pIC50” value in the test with Microsporum canis came to 5.69. Further, the “Inf. G” value in test [1] worked out at 5.31. Moreover, the “Inf. C” value with Trichophyton rubrum is recorded as 6.09. In the test with Scedosporium apiospermum, the “Inf. H” value amounted to 5.77. In addition, the “Inf. I” value in the test on Scedosporium prolificans came out at 6.77. Moreover, the “Inf. A: Sporothrix schenkii B62482, pIC50” value with Sporothrix schenkii was 4.41. Also, the “Inf. E” value in the test on Aspergillus fumigatus stood at 5.76. In the test on Candida parapsilosis, the “Inf. D” value is reported as under 4.19. In the test on Cryptococcus neoformans, the “Inf. F” value worked out at 5.74. The “Inf. J: Rhizopus oryzae IHEM5223, pIC50” value with Rhizopus oryzae is recorded as under 4.19. The “Inf. K” value in the test on Rhizomucor miehei is given as 4.53.
Consider `Clc1cccc2c1CN=C(c1ccc3scnc3c1)c1cccn1-2` [Compound 188], for which the “Inf. B: Microsporum canis B68128, pIC50” value with Microsporum canis was determined as 6.20. Moreover, in test [1], the “Inf. G” value was determined as 6.05. Also, the “Inf. C” value with Trichophyton rubrum was found to be 6.64. The “Inf. H” value in the test on Scedosporium apiospermum is 6.29. Moreover, the “Inf. I” value with Scedosporium prolificans was found to be 6.24. The “Inf. A: Sporothrix schenkii B62482, pIC50” value in the test with Sporothrix schenkii is under 4.19. Besides, the “Inf. E” value in the test with Aspergillus fumigatus is on record as 5.56. Further, in the test on Candida parapsilosis, the “Inf. D” value was 4.90. Besides, in the test on Cryptococcus neoformans, the “Inf. F” value is 4.98. In addition, the “Inf. J: Rhizopus oryzae IHEM5223, pIC50” value with Rhizopus oryzae is under 4.19. Besides, the “Inf. K” value with Rhizomucor miehei was found to be 4.42.
Consider `CC(F)(F)c1ccc(C2=NCc3c(Cl)cccc3-n3cccc32)cn1` [Compound 82], for which the “Inf. B: Microsporum canis B68128, pIC50” value in the test on Microsporum canis was 6.37. Moreover, in test [1], the “Inf. G” value came out at 6.24. Further, the “Inf. C” value in the test with Trichophyton rubrum is listed as 6.85. Further, the “Inf. H” value in the test on Scedosporium apiospermum worked out at 6.01. Also, in the test on Scedosporium prolificans, the “Inf. I” value is 6.24. The “Inf. A: Sporothrix schenkii B62482, pIC50” value in the test with Sporothrix schenkii is reported as under 4.19. The “Inf. E” value in the test on Aspergillus fumigatus is 6.28. For the same compound, the “Inf. D” value with Candida parapsilosis worked out at 5.285. In the test on Cryptococcus neoformans, the “Inf. F” value was under 4.19. Further, the “Inf. J: Rhizopus oryzae IHEM5223, pIC50” value in the test on Rhizopus oryzae is recorded as under 4.19. The “Inf. K” value with Rhizomucor miehei is given as under 4.19.
As for `Cc1cccc2c1CN=C(c1ccc3ncsc3c1)c1cccn1-2` [Compound 183], the “Inf. B: Microsporum canis B68128, pIC50” value in the test with Microsporum canis was 5.85. The “Inf. G” value in test [1] was 5.99. Besides, the “Inf. C” value in the test with Trichophyton rubrum was found to be 6.68. The “Inf. H” value in the test with Scedosporium apiospermum was under 4.49. Besides, in the test with Scedosporium prolificans, the “Inf. I” value was 4.96. The “Inf. A: Sporothrix schenkii B62482, pIC50” value in the test with Sporothrix schenkii was determined as 4.77. In addition, in the test with Aspergillus fumigatus, the “Inf. E” value is reported as 5.26. In the test with Candida parapsilosis, the “Inf. D” value stood at 5.31. The “Inf. F” value with Cryptococcus neoformans is given as 4.49. For the same compound, the “Inf. J: Rhizopus oryzae IHEM5223, pIC50” value with Rhizopus oryzae is given as under 4.49. Also, the “Inf. K” value in the test with Rhizomucor miehei was under 4.49.
Take `COc1cccc2cc(C3=NCc4c(Cl)cccc4-n4cccc43)oc12` [Compound 141]: the “Inf. B: Microsporum canis B68128, pIC50” value in the test with Microsporum canis was determined as 6.88. Besides, the “Inf. G” value in [1] was determined as 7.64. Besides, the “Inf. C” value in the test with Trichophyton rubrum turned out to be 6.86. In addition, in the test with Scedosporium apiospermum, the “Inf. H” value is under 4.19. Further, the “Inf. I” value in the test on Scedosporium prolificans is on record as 5.05. In addition, the “Inf. A: Sporothrix schenkii B62482, pIC50” value in the test with Sporothrix schenkii is given as under 4.19. Besides, in the test on Aspergillus fumigatus, the “Inf. E” value is under 4.19. Moreover, the “Inf. D” value in the test with Candida parapsilosis is recorded as under 4.19. Moreover, the “Inf. F” value in the test on Cryptococcus neoformans was under 4.19. Besides, the “Inf. J: Rhizopus oryzae IHEM5223, pIC50” value in the test on Rhizopus oryzae is recorded as under 4.19. In addition, the “Inf. K” value in the test on Rhizomucor miehei is under 4.19.
Turning to `Clc1cccc2c1CN=C(c1ccc3ccsc3c1)c1cccn1-2` [Compound 172], the “Inf. B: Microsporum canis B68128, pIC50” value in the test on Microsporum canis was determined as 6.90. In addition, the “Inf. G” value in [1] is 6.81. In addition, the “Inf. C” value in the test with Trichophyton rubrum came out at 7.35. In the test on Scedosporium apiospermum, the “Inf. H” value turned out to be 5.15. For the same compound, the “Inf. I” value in the test with Scedosporium prolificans was determined as 5.45. Also, the “Inf. A: Sporothrix schenkii B62482, pIC50” value in the test with Sporothrix schenkii turned out to be 5.59. Also, in the test on Aspergillus fumigatus, the “Inf. E” value was 6.29. In addition, the “Inf. D” value in the test with Candida parapsilosis was 5.80. In the test with Cryptococcus neoformans, the “Inf. F” value came out at 5.85. In addition, the “Inf. J: Rhizopus oryzae IHEM5223, pIC50” value in the test on Rhizopus oryzae is under 4.19. In addition, in the test on Rhizomucor miehei, the “Inf. K” value was determined as 4.72.
For `CC(F)(F)c1ccc(C2=NCc3c(F)cc(F)cc3-n3cccc32)cn1` [Compound 86], the “Inf. B: Microsporum canis B68128, pIC50” value in the test with Microsporum canis is given as 5.67. The “Inf. G” value in test [1] is reported as 5.59. In the test with Trichophyton rubrum, the “Inf. C” value came out at 6.30. In the test on Scedosporium apiospermum, the “Inf. H” value was determined as 4.43. Moreover, the “Inf. I” value in the test on Scedosporium prolificans is 5.77. Further, the “Inf. A: Sporothrix schenkii B62482, pIC50” value in the test with Sporothrix schenkii came to 4.94. In addition, the “Inf. E” value with Aspergillus fumigatus amounted to 5.68. Also, the “Inf. D” value with Candida parapsilosis is reported as 5.56. In the test on Cryptococcus neoformans, the “Inf. F” value amounted to 4.99. For the same compound, the “Inf. J: Rhizopus oryzae IHEM5223, pIC50” value with Rhizopus oryzae was under 4.19. The “Inf. K” value in the test with Rhizomucor miehei is under 4.19.
Consider `Clc1cc(C2=NCc3c(Cl)cccc3-n3cccc32)cnc1Cl` [Compound 79], for which, in the test with Microsporum canis, the “Inf. B: Microsporum canis B68128, pIC50” value was determined as 5.72. Moreover, the “Inf. G” value in test [1] stood at 5.76. For the same compound, the “Inf. C” value with Trichophyton rubrum came out at 6.33. Moreover, the “Inf. H” value with Scedosporium apiospermum is 6.12. For the same compound, the “Inf. I” value in the test with Scedosporium prolificans came to 6.28. Besides, the “Inf. A: Sporothrix schenkii B62482, pIC50” value with Sporothrix schenkii is listed as under 4.19. Further, the “Inf. E” value with Aspergillus fumigatus worked out at 6.63. Moreover, the “Inf. D” value with Candida parapsilosis is recorded as 4.69. Besides, in the test with Cryptococcus neoformans, the “Inf. F” value is reported as under 4.19. Besides, in the test with Rhizopus oryzae, the “Inf. J: Rhizopus oryzae IHEM5223, pIC50” value is reported as under 4.19. Also, in the test on Rhizomucor miehei, the “Inf. K” value was under 4.19.
On to `Cl.Clc1cccc2c1CNC(c1cc3ccccc3o1)c1cccn1-2` (racemic) [Compound 30], for which, in the test with Microsporum canis, the “Inf. B: Microsporum canis B68128, pIC50” value is on record as 6.27. Besides, the “Inf. G” value in test [1] was found to be 6.15. In addition, the “Inf. C” value in the test on Trichophyton rubrum is 6.29. In the test on Scedosporium apiospermum, the “Inf. H” value is 4.94. Further, the “Inf. I” value with Scedosporium prolificans is under 4.19. Further, the “Inf. A: Sporothrix schenkii B62482, pIC50” value in the test with Sporothrix schenkii is reported as 4.89. For the same compound, the “Inf. E” value in the test on Aspergillus fumigatus was determined as 6.32. For the same compound, the “Inf. D” value with Candida parapsilosis was found to be 5.22. For the same compound, in the test with Cryptococcus neoformans, the “Inf. F” value is under 4.19. Also, the “Inf. J: Rhizopus oryzae IHEM5223, pIC50” value in the test with Rhizopus oryzae is under 4.19. Further, the “Inf. K” value with Rhizomucor miehei was under 4.19.
